In ChEMBL document CHEMBL4715696, “In vitro synergistic anticancer activity of the combination of T-type calcium channel blocker and chemotherapeutic agent in A549 cells” (Bioorg Med Chem Lett, 2016):

Tests used:
[1] = tested on: A549; assay: Decrease in cell cycle associated protein expression in human A549 cells assessed as fold change in cyclin D1 expression at 2.5 uM after 48 hrs by Western blot analysis (reference value: 0.39); assay type: functional
[2] = tested on: A549; assay: Potentiation of cisplatin-induced cell cycle arrest in human A549 cells assessed as accumulation at G1 phase at 10 uM in presence of cisplatin after 48 hrs by flow cytometric analysis (reference value: 14.4%); assay type: functional
[3] = tested on: A549; assay: Decrease in cell cycle associated protein expression in human A549 cells assessed as fold change in CDK6 expression at 5 uM after 48 hrs by Western blot analysis (reference value: 1.05); assay type: functional
[4] = tested on: A549; assay: Decrease in cell cycle associated protein expression in human A549 cells assessed as fold change in cyclin D1 expression at 10 uM after 6 hrs by Western blot analysis (reference value: 0.68); assay type: functional
[5] = tested on: A549; assay: Decrease in cell cycle associated protein expression in human A549 cells assessed as reduction in cyclin D2 expression after 48 hrs by Western blot analysis; assay type: functional, cell-based; conditions: dose 2.5-10 µM
[6] = tested on: A549; assay: Potentiation of etoposide-induced cell cycle arrest in human A549 cells assessed as accumulation at G1 phase at 10 uM in presence of etoposide after 48 hrs by flow cytometric analysis (reference value: 36%); assay type: functional
[7] = target: CYP2C9 (Homo sapiens, UniProt P11712); assay: Inhibition of human CYP2C9 assessed as residual activity at 10 uM measured after 15 mins relative to control; assay type: ADME; conditions: read-out: Activity
[8] = Protein binding in rat plasma at 10 uM after 4 hrs; assay type: ADME, cell-free; conditions: read-out: PPB (converted)
[9] = tested on: A549; assay: Decrease in cell cycle associated protein expression in human A549 cells assessed as reduction in CDK6 expression at 10 uM by Western blot analysis; assay type: functional, cell-based; conditions: time 6-48 hrs, TDE = time-dependent effect
[10] = tested on: A549; assay: Decrease in cell cycle associated protein expression in human A549 cells assessed as fold change in cyclin D1 expression at 10 uM after 36 hrs by Western blot analysis (reference value: 0.68); assay type: functional
[11] = tested on: A549; assay: Decrease in cell cycle associated protein expression in human A549 cells assessed as fold change in CDK2 expression at 10 uM after 12 hrs by Western blot analysis (reference value: 0.79); assay type: functional
[12] = tested on: A549; assay: Potentiation of cisplatin-induced cell cycle arrest in human A549 cells assessed as accumulation at S phase at 2.5 uM in presence of cisplatin after 48 hrs by flow cytometric analysis (Rvb =15.8%); assay type: functional
[13] = Upregulation of p27KIP1 protein expression in human A549 cells assessed as fold change in expression at 10 uM after 48 hrs by Western blot analysis (reference value: 0.48 to 0.83); assay type: functional
[14] = Increase in recruitment of […] p27KIP1 to CDK2 in human A549 cells assessed as fold change at 10 uM incubated for 12 hrs by immunoprecipitation/immunoblot analysis (reference value: 0.43); assay type: functional
[15] = tested on: A549; assay: Decrease in cell cycle associated protein expression in human A549 cells assessed as fold change in CDK2 expression at 10 uM after 6 hrs by Western blot analysis (reference value: 0.79); assay type: functional
[16] = Increase in recruitment of […] p27KIP1 to CDK4 in human A549 cells assessed as fold change at 10 uM incubated for 12 hrs by immunoprecipitation/immunoblot analysis (reference value: 0.16); assay type: functional
[17] = tested on: A549; assay: Potentiation of etoposide-induced cell cycle arrest in human A549 cells assessed as accumulation at G2/M phase at 10 uM in presence of etoposide after 48 hrs by flow cytometric analysis (Rvb =18.9%); assay type: functional
[18] = tested on: A549; assay: Decrease in cell cycle associated protein expression in human A549 cells assessed as fold change in cyclin D2 expression at 2.5 uM after 48 hrs by Western blot analysis (reference value: 0.46); assay type: functional
[19] = tested on: A549; assay: Induction of cell cycle arrest in human A549 cells assessed as accumulation at S phase at 10 uM after 48 hrs by flow cytometric analysis (reference value: 10.4%); assay type: functional
[20] = tested on: A549; assay: Potentiation of cisplatin-induced cell cycle arrest in human A549 cells assessed as accumulation at S phase at 10 uM in presence of cisplatin after 48 hrs by flow cytometric analysis (Rvb =15.8%); assay type: functional
[21] = tested on: A549; assay: Potentiation of cisplatin-induced cell cycle arrest in human A549 cells assessed as accumulation at G2/M phase at 2.5 uM in presence of cisplatin after 48 hrs by flow cytometric analysis (Rvb =52.9%); assay type: functional
[22] = tested on: A549; assay: Decrease in cell cycle associated protein expression in human A549 cells assessed as fold change in cyclin D2 expression at 10 uM after 48 hrs by Western blot analysis (reference value: 0.46 to 0.77); assay type: functional
[23] = tested on: A549; assay: Decrease in cell cycle associated protein expression in human A549 cells assessed as fold change in cyclin D1 expression at 10 uM after 24 hrs by Western blot analysis (reference value: 0.68); assay type: functional
[24] = target: CYP3A4 (Homo sapiens, UniProt P08684); assay: Inhibition of human CYP3A4 assessed as residual activity at 10 uM measured after 15 mins relative to control; assay type: ADME; conditions: read-out: Activity
[25] = tested on: A549; assay: Decrease in cell cycle associated protein expression in human A549 cells assessed as fold change in cyclin D1 expression at 10 uM after 48 hrs by Western blot analysis (reference value: 0.39 to 0.68); assay type: functional
[26] = tested on: A549; assay: Potentiation of cisplatin-induced cell cycle arrest in human A549 cells assessed as accumulation at sub G1 phase at 5 uM in presence of cisplatin after 48 hrs by flow cytometric analysis (reference value: 17%); assay type: functional
[27] = tested on: A549; assay: Decrease in cell cycle associated protein expression in human A549 cells assessed as fold change in CDK2 expression at 2.5 uM after 48 hrs by Western blot analysis (reference value: 0.48); assay type: functional
[28] = Metabolic stability in human liver microsomes assessed as parent compound remaining at 1 uM measured for 30 mins; assay type: ADME, Microsome; conditions: read-out: Stabilty
[29] = target: CYP2C19 (Homo sapiens, UniProt P33261); assay: Inhibition of human CYP2C19 assessed as residual activity at 10 uM measured after 15 mins relative to control; assay type: ADME; conditions: read-out: Activity
[30] = tested on: A549; assay: Induction of cell cycle arrest in human A549 cells assessed as accumulation at sub G1 phase at 5 uM after 24 hrs by flow cytometric analysis (reference value: 7.8%); assay type: functional
[31] = Metabolic stability in mouse liver microsomes assessed as parent compound remaining at 1 uM measured for 30 mins; assay type: ADME, Microsome; conditions: read-out: Stabilty
[32] = tested on: A549; assay: Decrease in cell cycle associated protein expression in human A549 cells assessed as fold change in cyclin E expression at 10 uM after 48 hrs by Western blot analysis (reference value: 0.37 to 0.55); assay type: functional
[33] = tested on: A549; assay: Potentiation of cisplatin-induced cell cycle arrest in human A549 cells assessed as accumulation at G2/M phase at 10 uM in presence of cisplatin after 48 hrs by flow cytometric analysis (Rvb =52.9%); assay type: functional
[34] = Metabolic stability in human plasma assessed as parent compound remaining at 10 uM measured after 2 hrs; assay type: ADME, cell-free; conditions: read-out: Stabilty
[35] = tested on: A549; assay: Decrease in cell cycle associated protein expression in human A549 cells assessed as reduction in CDK4 expression after 48 hrs by Western blot analysis; assay type: functional, cell-based; conditions: dose 2.5-10 µM

CYP2C9, sequence (P11712 whole entry): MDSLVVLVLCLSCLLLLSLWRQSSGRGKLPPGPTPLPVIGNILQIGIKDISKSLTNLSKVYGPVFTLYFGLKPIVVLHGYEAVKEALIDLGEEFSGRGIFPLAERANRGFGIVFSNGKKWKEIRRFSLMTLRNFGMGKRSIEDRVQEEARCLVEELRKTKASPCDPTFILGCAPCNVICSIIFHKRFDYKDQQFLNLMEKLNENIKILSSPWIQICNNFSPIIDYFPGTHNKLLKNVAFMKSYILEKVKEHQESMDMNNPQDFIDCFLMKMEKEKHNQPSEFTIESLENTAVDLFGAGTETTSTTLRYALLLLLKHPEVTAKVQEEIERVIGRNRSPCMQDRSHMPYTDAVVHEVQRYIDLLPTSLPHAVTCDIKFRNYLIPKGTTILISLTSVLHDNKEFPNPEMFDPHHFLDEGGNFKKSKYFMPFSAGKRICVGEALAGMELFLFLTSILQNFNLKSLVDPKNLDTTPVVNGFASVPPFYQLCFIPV
CYP3A4, sequence (P08684 whole entry): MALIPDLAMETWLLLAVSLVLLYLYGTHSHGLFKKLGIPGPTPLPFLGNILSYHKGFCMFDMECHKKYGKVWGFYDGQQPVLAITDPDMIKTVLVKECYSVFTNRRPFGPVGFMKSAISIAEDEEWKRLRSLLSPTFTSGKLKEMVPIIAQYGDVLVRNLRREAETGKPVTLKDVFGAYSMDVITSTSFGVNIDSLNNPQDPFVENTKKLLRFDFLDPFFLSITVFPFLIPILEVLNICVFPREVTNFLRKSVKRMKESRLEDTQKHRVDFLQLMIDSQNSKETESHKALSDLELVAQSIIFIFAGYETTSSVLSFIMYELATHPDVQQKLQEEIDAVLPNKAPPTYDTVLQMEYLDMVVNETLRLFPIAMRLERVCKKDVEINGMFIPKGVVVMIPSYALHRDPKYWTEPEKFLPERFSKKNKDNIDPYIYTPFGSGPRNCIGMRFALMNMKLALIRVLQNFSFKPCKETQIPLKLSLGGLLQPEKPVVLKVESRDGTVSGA
CYP2C19, sequence (P33261 whole entry): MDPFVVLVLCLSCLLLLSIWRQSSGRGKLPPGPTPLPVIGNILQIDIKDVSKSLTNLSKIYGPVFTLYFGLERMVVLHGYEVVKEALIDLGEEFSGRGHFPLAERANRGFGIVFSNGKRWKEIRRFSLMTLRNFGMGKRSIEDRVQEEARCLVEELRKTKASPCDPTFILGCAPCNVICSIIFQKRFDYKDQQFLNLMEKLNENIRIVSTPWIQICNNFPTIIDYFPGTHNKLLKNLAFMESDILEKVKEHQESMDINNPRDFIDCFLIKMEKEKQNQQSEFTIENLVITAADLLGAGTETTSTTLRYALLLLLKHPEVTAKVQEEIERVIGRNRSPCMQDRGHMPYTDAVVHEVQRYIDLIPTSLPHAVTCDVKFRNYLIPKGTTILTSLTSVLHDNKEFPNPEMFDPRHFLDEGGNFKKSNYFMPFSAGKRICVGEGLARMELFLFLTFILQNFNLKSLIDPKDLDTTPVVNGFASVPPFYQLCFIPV

## CN(C)C(=O)NCCCN(C)C1=Nc2ccccc2C(CC(=O)NCc2ccc(F)cc2)N1c1ccc(C2CCCCC2)cc1 (stereo not given)
[1]
  fold change (FC): 0.43
[2]
  Activity: 32.4%
[3]
  fold change (FC): 0.45
[4]
  fold change (FC): 0.47
[5]
  Activity: Dose-dependent effect
[6]
  Activity: 7.9%
[7]
  activity at 0.25 h, 10 µM: 89.8%
[8]
  fraction unbound at 4 h, 10 µM: < 0.01
[9]
  Activity: Tde
[10]
  fold change (FC): 0.62
[11]
  fold change (FC): 0.62
[12]
  Activity: 19.2%
[13]
  fold change (FC): 0.93
[14]
  fold change (FC): 0.6
[15]
  fold change (FC): 0.91
[16]
  fold change (FC): 0.62
[17]
  Activity: 3.2%
[18]
  fold change (FC): 0.61
[19]
  Activity: 2.4%
[20]
  Activity: 6.1%
[21]
  Activity: 43%
[22]
  fold change (FC): 0.18
[23]
  fold change (FC): 0.37
[24]
  activity at 0.25 h, 10 µM: 36.9%
[25]
  fold change (FC): 0.55
[26]
  Activity: 24.8%
[27]
  fold change (FC): 0.47
[28]
  remaining at 0.5 h, 1 µM: 71.2%
[29]
  activity at 0.25 h, 10 µM: 55.8%
[30]
  Activity: 4.7%
[31]
  remaining at 0.5 h, 1 µM: 64.3%
[32]
  fold change (FC): 0.01
[33]
  Activity: 9.4%
[34]
  remaining at 2 h, 10 µM: 57.6%
[35]
  Activity: Dose-dependent effect
